Test [1] concerns the target T1, HDAC8 (Homo sapiens, UniProt Q9BY41).
T1 sequence (Q9BY41 1-377): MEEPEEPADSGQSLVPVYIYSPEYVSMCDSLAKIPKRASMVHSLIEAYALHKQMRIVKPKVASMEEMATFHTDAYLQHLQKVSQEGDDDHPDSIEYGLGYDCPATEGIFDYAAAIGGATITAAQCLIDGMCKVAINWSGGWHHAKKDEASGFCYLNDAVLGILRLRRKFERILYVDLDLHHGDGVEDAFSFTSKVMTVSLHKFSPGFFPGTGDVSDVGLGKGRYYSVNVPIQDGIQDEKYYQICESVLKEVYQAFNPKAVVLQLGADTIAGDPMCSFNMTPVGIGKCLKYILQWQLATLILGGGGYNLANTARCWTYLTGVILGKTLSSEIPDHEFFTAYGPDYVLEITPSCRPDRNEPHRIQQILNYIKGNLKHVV
Nature of the test: HDAC-Glo I/II assay, HDAC8. The test is classed as biochemical. The arrangement: purchased BPS Bioscience 50008. The conditions noted are these: recombinant human HDAC8, HDAC-Glo; read-out: pIC50 HDAC8 Glo (converted).

In test [2] the target is T2, HDAC2 (Homo sapiens, UniProt Q92769).
T2 construct: purchased BPS Bioscience 50002
Nature of the test: HDAC-Glo I/II assay, HDAC2. Format: biochemical. The conditions noted are these: recombinant human HDAC2, HDAC-Glo; read-out: pIC50 HDAC2 Glo (converted).

The target in test [3] is T3, HDAC6 (Homo sapiens, UniProt Q9UBN7).
T3 construct: purchased BPS Bioscience 50006
T3 sequence (Q9UBN7 1-1215): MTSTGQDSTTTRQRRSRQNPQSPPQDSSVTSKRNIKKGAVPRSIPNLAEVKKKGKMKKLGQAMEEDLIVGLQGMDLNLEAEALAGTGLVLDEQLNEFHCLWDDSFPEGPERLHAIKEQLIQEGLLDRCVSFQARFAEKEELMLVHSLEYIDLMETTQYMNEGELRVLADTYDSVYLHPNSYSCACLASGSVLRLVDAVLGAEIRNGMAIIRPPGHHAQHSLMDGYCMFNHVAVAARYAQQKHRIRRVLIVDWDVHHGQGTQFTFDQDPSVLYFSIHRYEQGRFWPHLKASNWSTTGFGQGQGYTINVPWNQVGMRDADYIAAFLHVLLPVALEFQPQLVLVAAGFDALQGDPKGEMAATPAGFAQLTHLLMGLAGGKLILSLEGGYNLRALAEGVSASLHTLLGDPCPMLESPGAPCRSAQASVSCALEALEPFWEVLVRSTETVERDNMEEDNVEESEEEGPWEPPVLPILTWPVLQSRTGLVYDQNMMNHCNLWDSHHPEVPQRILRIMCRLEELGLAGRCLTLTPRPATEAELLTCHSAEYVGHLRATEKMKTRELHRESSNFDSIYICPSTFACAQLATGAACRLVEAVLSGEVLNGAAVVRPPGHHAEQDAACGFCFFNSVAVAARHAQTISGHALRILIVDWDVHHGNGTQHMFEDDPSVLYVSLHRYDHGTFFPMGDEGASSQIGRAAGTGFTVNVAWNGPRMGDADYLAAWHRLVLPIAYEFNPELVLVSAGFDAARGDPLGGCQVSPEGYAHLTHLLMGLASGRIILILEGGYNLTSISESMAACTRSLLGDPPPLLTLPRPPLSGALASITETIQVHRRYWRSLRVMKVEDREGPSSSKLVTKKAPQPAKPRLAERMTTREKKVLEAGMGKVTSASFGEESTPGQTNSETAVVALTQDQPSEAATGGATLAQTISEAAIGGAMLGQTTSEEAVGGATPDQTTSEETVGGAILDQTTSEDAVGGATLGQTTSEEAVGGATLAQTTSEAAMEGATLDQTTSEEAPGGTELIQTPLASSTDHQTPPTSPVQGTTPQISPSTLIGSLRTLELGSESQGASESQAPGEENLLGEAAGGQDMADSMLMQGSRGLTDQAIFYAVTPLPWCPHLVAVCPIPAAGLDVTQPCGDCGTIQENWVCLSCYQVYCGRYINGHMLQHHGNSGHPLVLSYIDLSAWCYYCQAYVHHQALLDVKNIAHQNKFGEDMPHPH
Nature of the test: HDAC-Glo I/II assay, HDAC6. The test is classed as biochemical. The settings on record: recombinant human HDAC6, HDAC-Glo; read-out: pIC50 HDAC6 Glo (converted).

Test [4] has as its target T4, HDAC3/NcoR2 complex (Homo sapiens, UniProt O15379).
T4 construct: purchased BPS Bioscience 50003
Nature of the test: HDAC-Glo I/II assay, HDAC3/NcoR2 complex. The test is classed as biochemical. The settings on record: recombinant human HDAC3/NcoR2 complex, read-out: pIC50 HDAC3 Glo (converted).

Test [5] concerns the target T5, HDAC1 (Homo sapiens, UniProt Q13547).
T5 construct: purchased BPS Bioscience 50051
Kind of test: HDAC-Glo I/II assay, HDAC1. The conditions noted are these: recombinant human HDAC1, HDAC-Glo; read-out: pIC50 HDAC1 Glo (converted). Format: biochemical.

For test [6], the target named is T6, HDAC6 (2nd catalytic domain)-nanoluciferase fusion in HeLa cells (Homo sapiens, UniProt Q9UBN7).
T6 sequence (Q9UBN7 482-800 limits assumed): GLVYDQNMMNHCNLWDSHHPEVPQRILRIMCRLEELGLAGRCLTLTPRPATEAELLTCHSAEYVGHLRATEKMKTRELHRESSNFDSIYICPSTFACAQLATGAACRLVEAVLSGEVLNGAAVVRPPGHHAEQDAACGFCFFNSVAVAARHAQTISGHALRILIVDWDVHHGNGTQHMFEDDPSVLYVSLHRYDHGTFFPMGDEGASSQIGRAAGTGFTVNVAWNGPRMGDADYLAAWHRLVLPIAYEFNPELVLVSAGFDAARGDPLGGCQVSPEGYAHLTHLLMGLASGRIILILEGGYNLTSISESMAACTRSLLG
Kind of test: BRET intracellular target engagement assay, HDAC6. A general note: BRET reads energy transfer from a luciferase to a nearby fluorophore.

The target of test [7] is T7, TwinStrep-GST-HDAC10 (Homo sapiens, UniProt Q969S8).
T7 construct: made in house; host or cells: Sf21 insect cells (baculovirus, pFastBac1)
T7 sequence (Q969S8 1-669): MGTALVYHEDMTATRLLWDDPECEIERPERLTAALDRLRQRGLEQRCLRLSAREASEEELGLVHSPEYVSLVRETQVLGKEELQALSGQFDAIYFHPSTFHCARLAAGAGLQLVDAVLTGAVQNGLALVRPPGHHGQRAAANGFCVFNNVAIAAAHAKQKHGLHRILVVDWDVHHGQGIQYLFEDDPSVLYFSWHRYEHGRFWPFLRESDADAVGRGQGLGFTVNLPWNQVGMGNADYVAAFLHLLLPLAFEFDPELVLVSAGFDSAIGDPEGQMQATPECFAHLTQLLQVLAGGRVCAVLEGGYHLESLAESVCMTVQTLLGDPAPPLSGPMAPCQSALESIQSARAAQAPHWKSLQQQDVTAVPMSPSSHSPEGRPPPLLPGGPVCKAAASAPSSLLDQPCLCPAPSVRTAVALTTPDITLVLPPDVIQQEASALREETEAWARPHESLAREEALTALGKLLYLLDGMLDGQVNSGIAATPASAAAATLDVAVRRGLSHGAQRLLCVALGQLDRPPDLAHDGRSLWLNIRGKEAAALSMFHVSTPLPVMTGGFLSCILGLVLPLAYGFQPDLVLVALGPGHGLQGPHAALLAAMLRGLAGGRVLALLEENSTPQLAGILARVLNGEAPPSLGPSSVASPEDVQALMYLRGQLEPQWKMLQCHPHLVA
Kind of test: HDAC10 TR-FRET assay (Tubastatin-AF647-Tracer displacement). The test is classed as binding. The conditions noted are these: TR-FRET, 60 min at rt; read-out: pIC50 HDAC10 FRET (converted).

Test [8] concerns the target T8, HDAC10-nanoluciferase fusion in HeLa cells (Homo sapiens, UniProt Q969S8).
T8 sequence (Q969S8 1-669): T7 sequence (Q969S8 1-669)
Nature of the test: BRET intracellular target engagement assay, HDAC10. The settings on record: for HDAC10/6 fold selectivity (BRET): HDAC10 over HDAC6, from BRET.

The structures appear in SMILES notation.

T4 sequence (O15379 whole entry): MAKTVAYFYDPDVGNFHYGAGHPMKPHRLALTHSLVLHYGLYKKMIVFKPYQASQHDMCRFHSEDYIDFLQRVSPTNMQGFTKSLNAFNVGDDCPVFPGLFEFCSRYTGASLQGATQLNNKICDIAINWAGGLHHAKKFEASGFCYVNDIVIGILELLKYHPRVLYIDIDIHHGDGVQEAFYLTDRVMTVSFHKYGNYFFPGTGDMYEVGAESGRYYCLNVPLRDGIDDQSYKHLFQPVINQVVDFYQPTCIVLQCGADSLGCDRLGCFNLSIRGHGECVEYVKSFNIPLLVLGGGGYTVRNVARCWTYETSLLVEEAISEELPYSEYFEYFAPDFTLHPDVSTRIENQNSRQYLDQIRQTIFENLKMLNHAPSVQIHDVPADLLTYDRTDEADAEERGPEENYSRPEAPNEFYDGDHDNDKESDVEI
T4 sequence (Q9Y618 395-489 partner limits assumed): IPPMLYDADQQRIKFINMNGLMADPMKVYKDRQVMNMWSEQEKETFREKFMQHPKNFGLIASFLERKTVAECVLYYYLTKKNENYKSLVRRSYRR
T2 sequence (Q92769 whole entry): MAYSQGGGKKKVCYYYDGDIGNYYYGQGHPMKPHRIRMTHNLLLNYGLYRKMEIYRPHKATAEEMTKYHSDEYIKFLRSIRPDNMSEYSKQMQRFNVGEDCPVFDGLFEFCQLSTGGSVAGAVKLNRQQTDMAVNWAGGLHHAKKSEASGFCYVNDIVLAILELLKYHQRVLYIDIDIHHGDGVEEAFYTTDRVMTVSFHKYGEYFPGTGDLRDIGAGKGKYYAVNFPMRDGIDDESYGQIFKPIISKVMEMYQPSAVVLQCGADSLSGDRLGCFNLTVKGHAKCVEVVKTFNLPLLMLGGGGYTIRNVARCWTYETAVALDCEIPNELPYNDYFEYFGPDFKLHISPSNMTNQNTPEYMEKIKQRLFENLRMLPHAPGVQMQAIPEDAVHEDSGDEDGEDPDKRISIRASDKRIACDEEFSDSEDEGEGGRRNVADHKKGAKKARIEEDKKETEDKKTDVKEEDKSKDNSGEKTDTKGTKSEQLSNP
T5 sequence (Q13547 whole entry): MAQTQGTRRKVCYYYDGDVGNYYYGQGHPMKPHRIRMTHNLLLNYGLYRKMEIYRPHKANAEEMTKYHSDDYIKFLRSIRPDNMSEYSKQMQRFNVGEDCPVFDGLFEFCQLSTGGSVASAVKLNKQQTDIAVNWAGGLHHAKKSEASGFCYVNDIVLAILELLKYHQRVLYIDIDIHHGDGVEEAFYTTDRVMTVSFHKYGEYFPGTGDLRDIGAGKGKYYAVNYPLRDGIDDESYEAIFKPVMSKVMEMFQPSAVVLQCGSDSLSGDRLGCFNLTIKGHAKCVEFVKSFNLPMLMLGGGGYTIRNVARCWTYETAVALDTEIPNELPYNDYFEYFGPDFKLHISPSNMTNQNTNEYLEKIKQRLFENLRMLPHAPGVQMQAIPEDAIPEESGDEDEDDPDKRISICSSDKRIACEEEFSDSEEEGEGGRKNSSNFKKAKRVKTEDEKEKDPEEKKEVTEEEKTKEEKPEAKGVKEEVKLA

Turning to `CN(CCCC(=O)NO)CCNC(=O)c1ccc(/C(N)=N/O)cc1` [DKFZ-750, N-(2-((4-(Hydroxyamino)-4-oxobutyl)(methyl)amino)ethyl)-4-(M-hydroxycarbamimidoyl)benzamide], the IC50 is around 25.1 µM in test [1]; above 100 µM in test [2]; 6.31 µM in test [3]; above 100 µM in test [4]; 15.8 µM in test [5]; above 39.8 µM in test [6]. The IC50 in test [7] is 0.02 µM; in test [8], 2 µM. Further, in test [8], the “HDAC10/6 fold selectivity (BRET)” value is on record as above 21 fold.

Turning to `CCCCN(CCCC(=O)NO)CCC(=O)Nc1ccccc1` [DKFZ-717, 4-(Butyl(3-oxo-3-(phenylamino)propyl)amino)-N-hydroxybutanamide], the IC50 in test [1] is 7.94 µM; in test [2], above 200 µM; in test [3], 5.01 µM; in test [4], around 200 µM; in test [5] it was 79.4 µM; in test [6], above 39.8 µM. Also, the figures for the IC50 in test [7] and in test [8] were 0.631 µM and 1.58 µM, respectively. Moreover, the “HDAC10/6 fold selectivity (BRET)” value in test [8] is given as 38 fold.

In the case of `CC(C)N(CCCC(=O)NO)CCC(=O)Nc1ccccc1` [DKFZ-715, 4-(Isopropyl(3-oxo-3-(phenylamino)propyl)amino)-N-hydroxybutanamide], the IC50 was 5.01 µM in test [1]; above 200 µM in test [2]; 12.6 µM in test [3]; below 200 µM in test [4]; 398 µM in test [5]; above 39.8 µM in test [6]. Moreover, the figures for the IC50 in test [7] and in test [8] were 0.631 µM and 2 µM, respectively. For the same compound, the “HDAC10/6 fold selectivity (BRET)” value in test [8] was above 21 fold.

On to `CN(CCCC(=O)NO)CCNC(=O)c1c2ccccc2cc2ccccc12` [DKFZ-771, N-(2-((4-(Hydroxyamino)-4-oxobutyl)(methyl)amino)ethyl)anthracene-9-carboxamide], for which the IC50 was 0.794 µM in test [1]; 3.98 µM in test [2]; 0.631 µM in test [3]; 2 µM in test [5]; 3.98 µM in test [6].

With `O=C(CC1CN(CCC(=O)Nc2ccccc2)C1)NO` [DKFZ-770, 3-(3-(2-(Hydroxyamino)-2-oxoethyl)azetidin-1-yl)-N-phenylpropanamide], the IC50 was 20 µM in test [1]; 79.4 µM in test [2]; 6.31 µM in test [3]; above 100 µM in test [4]; 50.1 µM in test [5]; above 39.8 µM in test [6]. Also, the IC50 in test [7] was 0.158 µM; in test [8], 2 µM. Besides, the “HDAC10/6 fold selectivity (BRET)” value in test [8] is above 20 fold.

For the compound `O=C(CCCN(CCC(=O)Nc1ccccc1)C1CC1)NO` [DKFZ-724, 4-(Cyclopropyl(3-oxo-3-(phenylamino)propyl)amino)-N-hydroxybutanamide], the IC50 in test [1] is 2 µM; in test [2], above 200 µM; in test [3], 3.16 µM; in test [4] it was 126 µM; in test [5], 39.8 µM; in test [6], above 39.8 µM. Besides, the IC50 in test [7] was 0.251 µM; in test [8], 0.398 µM. The “HDAC10/6 fold selectivity (BRET)” value in test [8] is reported as above 110 fold.

As to `O=C(CCCN(CCC(=O)Nc1ccccc1)Cc1ccccc1)NO` [DKFZ-718, 4-(Benzyl(3-oxo-3-(phenylamino)propyl)amino)-N-hydroxybutanamide], the IC50 in test [1] is 2.51 µM; in test [2], around 126 µM; in test [3] it was 1 µM; in test [4] it was around 100 µM; in test [5], 25.1 µM; in test [6], 10 µM. In addition, the IC50 in test [7] is 2 µM; in test [8] it was 0.501 µM. In addition, the “HDAC10/6 fold selectivity (BRET)” value in test [8] stood at 25 fold.

Take `CN(CCCC(=O)NO)CCNC(=O)c1cccc2cn[nH]c12` [DKFZ-757, N-(2-((4-(Hydroxyamino)-4-oxobutyl)(methyl)amino)ethyl)-1H-indazole-7-carboxamide]: the IC50 was around 25.1 µM in test [1]; above 100 µM in test [2]; 6.31 µM in test [3]; above 100 µM in test [4]; 10 µM in test [5]; 25.1 µM in test [6]. Also, the figures for the IC50 in test [7] and in test [8] were 0.00794 µM and 0.0631 µM, respectively. In addition, the “HDAC10/6 fold selectivity (BRET)” value in test [8] is 423 fold.

Consider `CN(CCCC(=O)NO)CCCC(=O)Nc1ccccc1` [DKFZ-775, N-Hydroxy-4-(methyl(4-oxo-4-(phenylamino)butyl)amino)butanamide], for which the IC50 is 25.1 µM in test [1]; 12.6 µM in test [3]; above 100 µM in test [4]; 50.1 µM in test [5]; above 39.8 µM in test [6].
